According to patent US20170290774A1, “NEUROKININ-1 RECEPTOR ANTAGONIST COMPOSITION FOR TREATMENT OF DISEASES AND CONDITIONS OF THE RESPIRATORY TRACT” (PLUS VITECH, S.L., priority 2014, published 2017):

Test system: Fibrosis
Test: Area occupied by fibrosis in hematoxylin/eosin sections of sodium hypochlorite aerosol-treated rabbits
Format: in vivo, New Zealand albino rabbits
From the text: It is known that the factors TGF-α, TGF-β 1, TGF-β 2, TGF-β 3, SPARC, MMP-3; MMP-7, MMP-9, MMP-11, MMP-13 and MMP-14, TGF-β, NF-kB, EGF, MMP-9, VEGF and TNF-α which are produced by lung cells (pneumocytes, fibroblasts and vascular endothelial cells) and inflammatory cells (macrophages, lymphocytes and polymorphonuclear leukocytes) are involved in the pathophysiology and development of said respiratory tract diseases. […] Herein, 27 New Zealand albino rabbits (New Zealand White Rabbit) with an initial average weight about 3 kg were used in this example. All subjects were administered an aerosol of a solution consisting of a mixture of water and sodium hypochlorite (35 g sodium hypochlorite per liter of water) at a rate of 5 mL of said solution by inhalation three times a day for 7 days (days 1 to 7 of experimentation). Subsequently, from days 3 to 7, a group of 3 rabbits (Group 1) was administered an oral dose of 10 mg/kg body weight per day, another group of 3 rabbits (Group 2) was administered an oral dose of 40 mg/kg body weight per day, a third group (Group 3) was administered an oral dose of 80 mg/kg body weight per day and a fourth group (Group 4) was administered an oral dose of 100 mg/kg body weight per day. […] This mixture was administered as an aerosol by inhalation, also from days 3 to 7, to a group of 3 rabbits (group 5) at a dose of 0.05 mg/kg body weight per day, to another group of three rabbits (Group 6) at a dose of 0.1 mg/kg body weight per day, to another group of three rabbits (Group 7) at a dose of 0.2 mg/kg body weight per day and to another group of three rabbits (Group 8) at a dose of 0.4 mg/kg body weight per day. A placebo consisting only of olive oil was administered from days 3 to 7 to a control group of 3 rabbits (placebo group). In parallel, 3 rabbits were kept under identical conditions but were not administered any treatment nor the aforementioned sodium hypochlorite solution (control group). […] On day 7 of the experiment all animals were euthanized and necropsied. […] Samples were taken at the peripheral level of the lung parenchyma, just below the pleural surface. Tissue samples were also taken from the nasal cavity, pharynx, larynx and bronchi. Immunohistochemistry studies were performed for all samples to evaluate the levels of the markers TGF-α, TGF-β 1, TGF-β 2, TGF-β 3 SPARC, MMP-3; MMP-7, MMP-9, MMP-11, MMP-14, TGF-β, TNF-α and VEGF. The samples were then allowed to cool to room temperature over 10 minutes. Endogenous peroxidase activity was blocked by treatment with 3% hydrogen peroxide over 30 min at room temperature. […] In order to verify the expression of NK1 receptors, the cell samples were incubated in the presence of anti-NK1 antibodies ([…], Sigma-Aldrich) diluted 1:1000 at 4° C. overnight. After this time they were washed in 0.05M Tris buffer at room temperature. Subsequently, Envision System-HRP (Dako) reagents were added for 30 min at room temperature. Once this time had expired, the samples were again washed with 0.05 M Tris buffer, and immunoreactivity was visualized by light microscopy with a chromogenic solution with 3,3'-diaminobenzidine (DAB+; Dako, USA). In order to differentiate the cell nuclei, these were lightly stained with haematoxylin. Samples that were not incubated with the primary antibody, but wherein this was replaced by a non-immune serum were used as negative controls. In order to evaluate markers in these immunohistochemical assays, specific primary antibodies were used against them at a concentration 1:1000, as detailed in Table 12. Furthermore, for each of the sampled sections were placed on slides and stained with haematoxylin-eosin before subsequently being deparaffinised by immersion in xylene and then rehydrated through immersion in a series of solutions containing decreasing concentrations of ethanol and, finally, immersing them in water, eosin (20 seconds) and hematoxylin (40 seconds). All experiments were performed in sextuplicate. […]

C[C@@H](OC1OCCN(Cc2nc(=O)[nH][nH]2)C1c1ccc(F)cc1)c1cc(C(F)(F)F)cc(C(F)(F)F)c1 (stereo in doubt) [Aprepitant, 5-([(2R,3S)-2-((R)-1-[3,5-bis(trifluoromethyl)phenyl]ethoxy)-3-(4-fluorophenyl)morpholino]methyl)-1H-1,2,4-triazol-3(2H)-one]
Percent increase in Fibrosis with respect to the control group (bronchial tissue, Group 1, oral 10 mg/kg per day): 2,500.10%
Percent increase in Fibrosis with respect to the control group (bronchial tissue, Group 2, oral 40 mg/kg per day): 2,000.00%
Percent increase in Fibrosis with respect to the control group (bronchial tissue, Group 3, oral 80 mg/kg per day): 1,500.00%
Percent increase in Fibrosis with respect to the control group (bronchial tissue, Group 4, oral 100 mg/kg per day): 1,000.00%
% Med G5/C: percent increase in Fibrosis with respect to the control group (bronchial tissue, Group 5): 2,000.00%
% Med G6/C: percent increase in Fibrosis with respect to the control group (bronchial tissue, Group 6): 1,000.00%
% Med G7/C: percent increase in Fibrosis with respect to the control group (bronchial tissue, Group 7): 500.00%
% Med G8/C: percent increase in Fibrosis with respect to the control group (bronchial tissue, Group 8): 100.50%
Percent increase in Fibrosis with respect to the control group (laryngeal tissue, Group 1, oral 10 mg/kg per day): 250.50%
Percent increase in Fibrosis with respect to the control group (laryngeal tissue, Group 2, oral 40 mg/kg per day): 225.70%
Percent increase in Fibrosis with respect to the control group (laryngeal tissue, Group 3, oral 80 mg/kg per day): 200.57%
Percent increase in Fibrosis with respect to the control group (laryngeal tissue, Group 4, oral 100 mg/kg per day): 150.70%
Percent increase in Fibrosis with respect to the control group (laryngeal tissue, Group 5, inhalation 0.05 mg/kg per day): 375.50%
Percent increase in Fibrosis with respect to the control group (laryngeal tissue, Group 6, inhalation 0.1 mg/kg per day): 275.45%
Percent increase in Fibrosis with respect to the control group (laryngeal tissue, Group 7, inhalation 0.2 mg/kg per day): 200.60%
Percent increase in Fibrosis with respect to the control group (laryngeal tissue, Group 8, inhalation 0.4 mg/kg per day): 125.40%
Percent increase in Fibrosis with respect to the control group (lung tissue, Group 1, oral 10 mg/kg per day): 1,272.22%
Percent increase in Fibrosis with respect to the control group (lung tissue, Group 2, oral 40 mg/kg per day): 683.33%
Percent increase in Fibrosis with respect to the control group (lung tissue, Group 3, oral 80 mg/kg per day): 611.11%
Percent increase in Fibrosis with respect to the control group (lung tissue, Group 4, oral 100 mg/kg per day): 516.67%
Percent increase in Fibrosis with respect to the control group (lung tissue, Group 5, inhalation 0.05 mg/kg per day): 1,127.78%
Percent increase in Fibrosis with respect to the control group (lung tissue, Group 6, inhalation 0.1 mg/kg per day): 433.33%
Percent increase in Fibrosis with respect to the control group (lung tissue, Group 7, inhalation 0.2 mg/kg per day): 233.33%
Percent increase in Fibrosis with respect to the control group (lung tissue, Group 8, inhalation 0.4 mg/kg per day): 161.11%
Percent increase in Fibrosis with respect to the control group (nasal cavity tissue, Group 1, oral 10 mg/kg per day): 513.89%
Percent increase in Fibrosis with respect to the control group (nasal cavity tissue, Group 2, oral 40 mg/kg per day): 375.00%
Percent increase in Fibrosis with respect to the control group (nasal cavity tissue, Group 3, oral 80 mg/kg per day): 300.00%
Percent increase in Fibrosis with respect to the control group (nasal cavity tissue, Group 4, oral 100 mg/kg per day): 300.00%
Percent increase in Fibrosis with respect to the control group (nasal cavity tissue, Group 5, inhalation 0.05 mg/kg per day): 700.00%
Percent increase in Fibrosis with respect to the control group (nasal cavity tissue, Group 6, inhalation 0.1 mg/kg per day): 319.44%
Percent increase in Fibrosis with respect to the control group (nasal cavity tissue, Group 7, inhalation 0.2 mg/kg per day): 163.89%
Percent increase in Fibrosis with respect to the control group (nasal cavity tissue, Group 8, inhalation 0.4 mg/kg per day): 147.22%
Percent increase in Fibrosis with respect to the control group (pharyngeal tissue, Group 1, oral 10 mg/kg per day): 489.54%
Percent increase in Fibrosis with respect to the control group (pharyngeal tissue, Group 2, oral 40 mg/kg per day): 457.45%
Percent increase in Fibrosis with respect to the control group (pharyngeal tissue, Group 3, oral 80 mg/kg per day): 380.00%
Percent increase in Fibrosis with respect to the control group (pharyngeal tissue, Group 4, oral 100 mg/kg per day): 275.00%
Percent increase in Fibrosis with respect to the control group (pharyngeal tissue, Group 5, inhalation 0.05 mg/kg per day): 480.30%
Percent increase in Fibrosis with respect to the control group (pharyngeal tissue, Group 6, inhalation 0.1 mg/kg per day): 258.34%
Percent increase in Fibrosis with respect to the control group (pharyngeal tissue, Group 7, inhalation 0.2 mg/kg per day): 152.23%
Percent increase in Fibrosis with respect to the control group (pharyngeal tissue, Group 8, inhalation 0.4 mg/kg per day): 128.32%
